According to the supplement of paper PMC10307832:

How the values were obtained:
Test in all cases: relative viability (nuclei count vs DMSO), 5 days (fraction); higher = more cells survive
BGJ398 + Trametinib = compound: CCN1CCN(c2ccc(Nc3cc(N(C)C(=O)Nc4c(Cl)c(OC)cc(OC)c4Cl)ncn3)cc2)CC1 [BGJ398] + CC(=O)Nc1cccc(-n2c(=O)n(C3CC3)c(=O)c3c(Nc4ccc(I)cc4F)n(C)c(=O)c(C)c32)c1 [Trametinib] (partner 0.02 µM)
Procedure, shortened: (§1)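 One day after seeding in 1536-well plates, lung cancer cell lines were dosed by pin tool. Dosing was either single-drug or a fixed anchor-drug dose plus five library-drug doses (not always all listed) in √10 steps. After 5 days, nuclei were stained in one fix-and-stain step and counted on 4× images, and relative viability is the nuclei count of treated wells over that of vehicle wells, given as the median of duplicate plates.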

BGJ398 + Linsitinib = compound: CCN1CCN(c2ccc(Nc3cc(N(C)C(=O)Nc4c(Cl)c(OC)cc(OC)c4Cl)ncn3)cc2)CC1 [BGJ398] + C[C@]1(O)C[C@@H](c2nc(-c3ccc4ccc(-c5ccccc5)nc4c3)c3c(N)nccn32)C1 [Linsitinib] (partner 1 µM)
Procedure, shortened: as §1

[1] = compound: C1=CC2=NC=CN=C2C=C1/C=C/3\C(=O)NC(=O)S3 + CCNC(=O)c1noc(-c2cc(C(C)C)c(O)cc2O)c1-c1ccc(CN2CCOCC2)cc1 [Luminespib] (partner 0.01 µM)
Procedure, shortened: as §1

BGJ398 + Decitabine = compound: CCN1CCN(c2ccc(Nc3cc(N(C)C(=O)Nc4c(Cl)c(OC)cc(OC)c4Cl)ncn3)cc2)CC1 [BGJ398] + Nc1ncn([C@H]2C[C@H](O)[C@@H](CO)O2)c(=O)n1 [Decitabine] (partner 2 µM)
Procedure, shortened: as §1

Row | Cell Line | relative viability (BGJ398 + Trametinib; first compound 0.01 µM) | relative viability (BGJ398 + Trametinib; first compound 0.03162 µM) | relative viability (BGJ398 + Trametinib; first compound 0.1 µM) | relative viability (BGJ398 + Trametinib; first compound 0.3162 µM) | relative viability (BGJ398 + Trametinib; first compound 1 µM) | relative viability (BGJ398 + Linsitinib; first compound 0.01 µM) | relative viability (BGJ398 + Linsitinib; first compound 0.03162 µM) | relative viability (BGJ398 + Linsitinib; first compound 0.1 µM) | relative viability (BGJ398 + Linsitinib; first compound 0.3162 µM) | relative viability (BGJ398 + Linsitinib; first compound 1 µM) | relative viability ([1]; first compound 0.02 µM) | relative viability ([1]; first compound 0.06325 µM) | relative viability ([1]; first compound 0.2 µM) | relative viability ([1]; first compound 0.6325 µM) | relative viability ([1]; first compound 2 µM) | relative viability (BGJ398 + Decitabine; first compound 0.01 µM) | relative viability (BGJ398 + Decitabine; first compound 0.03162 µM) | relative viability (BGJ398 + Decitabine; first compound 0.1 µM) | relative viability (BGJ398 + Decitabine; first compound 0.3162 µM) | relative viability (BGJ398 + Decitabine; first compound 1 µM)
1 | NCI-H23 | 0.348 | 0.438 | 0.441 | 0.377 | 0.322 | 0.582 | 0.597 | 0.564 | 0.568 | 0.48 | 0.254 | 0.219 | 0.219 | 0.217 | 0.184 | 0.303 | 0.375 | 0.279 | 0.271 | 0.325
2 | NCI-H322M | 0.587 | 0.465 | 0.511 | 0.435 | 0.507 | 0.863 | 0.788 | 0.978 | 0.935 | 0.999 | 0.95 | 0.76 | 0.707 | 0.8 | 0.522 | 0.755 | 0.723 | 0.771 | 0.602 | 0.833
3 | NCI-H358 | 0.137 | 0.127 | 0.134 | 0.126 | 0.148 | 0.631 | 0.714 | 0.724 | 0.707 | 0.848 | 0.265 | 0.35 | 0.347 | 0.224 | 0.182 | 0.184 | 0.215 | 0.208 | 0.201 | 0.2
4 | NCI-H441 |  | 0.484 | 0.52 | 0.429 | 0.436 | 0.526 | 0.569 | 0.7 | 0.486 | 0.484 | 0.294 | 0.334 | 0.332 | 0.364 | 0.255 |  | 0.26 | 0.275 | 0.273 | 0.224
5 | NCI-H460 | 0.0671 | 0.131 | 0.209 | 0.13 | 0.0628 | 0.714 | 0.838 | 0.916 | 0.895 | 0.92 | 0.0317 | 0.0415 | 0.0283 | 0.0303 | 0.0362 | 0.418 | 0.515 | 0.592 | 0.53 | 0.438
6 | NCI-H520 | 0.586 | 0.548 | 0.351 | 0.189 | 0.205 | 0.934 | 0.922 | 0.735 | 0.435 | 0.367 | 0.204 | 0.22 | 0.257 | 0.191 | 0.248 | 0.538 | 0.436 | 0.397 | 0.242 | 0.295
7 | NCI-H596 | 0.719 | 0.631 | 0.773 | 0.709 | 0.62 | 0.864 | 1 | 1.12 | 0.957 | 0.942 | 1.13 | 1.13 | 1.15 | 0.991 | 0.939 | 1.15 | 0.885 | 0.977 | 0.991 | 0.778
8 | NCI-H647 | 0.374 | 0.573 | 0.526 | 0.447 | 0.345 | 1.06 | 1.29 | 1.26 | 1.17 | 1.08 | 0.173 | 0.196 | 0.168 | 0.127 | 0.102 | 0.413 | 0.359 | 0.491 | 0.336 | 0.412
9 | NCI-H650 | 0.927 | 1.04 | 1.08 | 0.963 | 0.959 | 0.822 | 1.01 | 0.959 | 0.875 | 0.909 | 0.719 | 0.872 | 0.755 | 0.709 | 0.627 | 0.356 | 0.318 | 0.398 | 0.312 | 0.359
10 | NCI-H661 | 0.479 | 0.599 | 0.642 | 0.516 | 0.63 | 0.531 | 0.77 | 0.644 | 0.678 | 0.548 | 0.958 | 0.961 | 0.937 | 0.943 | 1.05 | 0.51 | 0.491 | 0.61 | 0.55 | 0.529
11 | NCI-H727 | 0.417 | 0.412 | 0.381 | 0.389 | 0.385 | 0.345 | 0.281 | 0.286 | 0.291 | 0.301 | 0.427 | 0.496 | 0.403 | 0.444 | 0.265 | 0.859 | 0.862 | 0.965 | 0.862 | 0.669
12 | NCI-H838 | 0.41 | 0.537 | 0.51 | 0.403 | 0.382 | 0.94 | 0.979 | 0.927 | 0.919 | 0.716 | 0.295 | 0.446 | 0.267 | 0.26 | 0.324 | 0.389 | 0.463 | 0.552 | 0.463 | 0.378
13 | NCI-H1355 | 0.374 | 0.44 | 0.452 | 0.382 | 0.329 | 0.741 | 0.807 | 0.827 | 0.779 | 0.823 | 0.687 | 0.516 | 0.751 | 0.631 | 0.608 | 0.378 | 0.309 | 0.348 | 0.352 | 0.348
14 | NCI-H1395 | 0.986 | 0.963 | 0.666 | 0.555 | 0.587 | 1.15 | 1.24 | 0.977 | 0.939 | 0.797 | 0.807 | 0.693 | 0.719 | 0.607 | 0.794 | 0.684 | 0.692 | 0.609 | 0.648 | 0.649
15 | NCI-H1437 | 0.59 | 0.508 | 0.559 | 0.519 | 0.393 | 0.999 | 0.995 | 1.04 | 1.05 | 1.06 | 1.09 | 1.14 | 1.05 | 1.08 | 1.12 | 0.59 | 0.532 | 0.606 | 0.598 | 0.515
16 | NCI-H1651 | 0.804 | 0.876 | 0.922 | 0.806 | 0.841 | 0.874 | 0.938 | 1.05 | 1.04 | 0.895 | 0.848 | 0.842 | 0.77 | 0.753 | 0.842 | 0.463 | 0.604 | 0.664 | 0.602 | 0.458
17 | NCI-H1666 | 0.735 | 0.908 | 0.965 | 0.911 | 0.75 | 0.708 | 0.812 | 0.816 | 0.835 | 0.709 | 1.04 | 0.994 | 1.05 | 0.965 | 1.03 | 0.634 | 0.763 | 0.814 | 0.68 | 0.506
18 | NCI-H1734 | 0.591 | 0.657 | 0.54 | 0.42 | 0.381 | 0.816 | 0.873 | 0.907 | 0.864 | 0.917 | 0.245 | 0.217 | 0.182 | 0.194 | 0.257 | 0.456 | 0.555 | 0.409 | 0.404 | 0.47
19 | NCI-H1755 | 0.723 | 0.751 | 0.725 | 0.638 | 0.554 | 0.93 | 1.01 | 0.983 | 0.955 | 1.01 | 0.433 | 0.329 | 0.606 | 0.244 | 0.352 | 0.675 | 0.738 | 0.721 | 0.686 | 0.634
20 | NCI-H1792 | 0.359 | 0.361 | 0.342 | 0.215 | 0.17 | 0.482 | 0.511 | 0.551 | 0.63 | 0.287 | 0.418 | 0.29 | 0.453 | 0.436 | 0.374 | 0.476 | 0.533 | 0.568 | 0.474 | 0.441
21 | NCI-H1793 | 0.442 | 0.311 | 0.273 | 0.305 | 0.312 | 0.804 |  | 0.833 | 0.71 | 0.756 | 0.201 | 0.188 | 0.169 | 0.169 | 0.174 | 0.479 | 0.457 | 0.451 | 0.423 | 0.376
22 | NCI-H1915 | 0.282 | 0.31 | 0.29 | 0.221 | 0.17 | 1.05 | 1.04 | 1.12 | 1.19 | 1.13 | 0.771 | 0.747 | 0.815 | 0.618 | 0.754 | 0.271 | 0.248 | 0.28 | 0.281 | 0.241
23 | NCI-H1944 | 0.371 | 0.452 | 0.403 | 0.387 | 0.382 | 1.17 | 1.22 | 1.28 | 1.2 | 1.28 | 0.667 | 0.515 | 0.75 | 0.695 | 0.656 | 0.401 | 0.404 | 0.448 | 0.43 | 0.48
24 | NCI-H1975 | 0.324 | 0.515 | 0.391 | 0.31 | 0.25 | 1.08 | 1.07 | 1.11 | 1.03 | 0.965 | 0.289 | 0.117 | 0.202 | 0.149 | 0.174 | 0.492 | 0.454 | 0.423 | 0.406 | 0.381
25 | NCI-H1993 | 0.447 | 0.524 | 0.596 | 0.441 | 0.595 | 0.764 | 0.791 | 0.752 | 0.894 | 0.729 | 0.712 | 0.863 | 0.854 | 0.798 | 0.557 | 0.59 | 0.624 | 0.582 | 0.696 | 0.576
26 | NCI-H2009 | 0.261 | 0.265 | 0.219 | 0.23 | 0.244 | 1.18 | 1.24 | 1.14 | 1.16 | 1.17 | 0.973 | 0.995 | 1.04 | 1.05 | 1.05 | 0.358 | 0.371 | 0.399 | 0.425 | 0.361
